According to article PMC6100113, “Involvement of CYP4F2 in the Metabolism of a Novel Monophosphate Ester Prodrug of Gemcitabine and Its Interaction Potential In Vitro” (Molecules : A Journal of Synthetic Chemistry and Natural …, 2018):
pIC50: −log10 of the molar value.

Columns and labels:
[1] = Metabolite identification by UPLC/Triple TOF MS in human hepatocytes; format: in vitro ADME; parameters: key: √: metabolites were detected by high-resolution mass spectrometry; settings: Compound-3 10 μM, 1 × 10^6 cell/mL, 60 min, HRMS
Protocol: (§1) For metabolite identification, a higher concentration of Compound-3 (10 μM) was incubated with liver microsomes (1 mg/mL) in the presence of NADPH (1 mM) and primary human hepatocytes at a density of 1 × 10^6 cell/mL. Samples were collected at 0 min and 60 min with the addition of ice-cold acetonitrile. After vortexing and centrifugation, the supernatant was transferred into a new tube and evaporated to dryness. The samples were then reconstituted in 100 μL of water and methanol (v/v, 9:1). An aliquot of 10 μL of reconstituted solution was injected into UPLC/Triple TOF 5600^+ MS for metabolite identification.
(§2) Identification of Compound-3 metabolites was carried out using Acquity UPLC/Triple TOF 5600^+ system. Chromatographic separation for Compound-3 and its metabolites were achieved by an Acquity UPLC HSS T3 column (100 × 2.1 mm i.d., […]; Waters Corp.) maintained at 40 °C. The mobile phase was a mixture of 0.02% formic acid in 5 mM ammonium acetate (A) and methanol (B). The gradient elution was started from 2% B and maintained for 4 min, then increased linearly to 75% B over the next 4 min and maintained for 8 min. […] The flow rate was 0.4 mL/min and the eluent was monitored by UV detection at 280 nm.
(§3) For mass detection, a Triple TOF 5600^+ mass spectrometer (AB Sciex, Framingham, MA, USA) was operated in positive ion electrospray (ES-positive) mode with the source temperature at 500 °C and scan range from m/z 100 to 1000 Da. Other parameters were set as follows: ion spray voltage, 5500 V; decluttering potential, 80 V; curtain gas, 40 psi; ion source gas 1, 55 psi; and ion source gas 2, 50 psi. Collision energies of 25 and 65 eV were used for TOF MS and product ion scans, respectively, and a collision energy spread of 20 was used in the MS/MS analysis. Information-dependent acquisition (IDA), together with real-time multiple mass defect filter, was used to trigger acquisition of MS/MS spectra.

CYP4F2 = target: T1, CYP4F2 (Homo sapiens, UniProt P78329); assay: CYP4F2-mediated drug interaction (inhibition of CYP4F2); format: in vitro ADME; settings: substrate pafuramidine 1.5 μM, CYP4F2 10 nM, 5 min, DB775 formation; read-out: IC50, inhibition of CYP4F2 mediated metabolism of pafuramidine
T1 construct: purchased Corning Gentest
T1 sequence (P78329 5-520): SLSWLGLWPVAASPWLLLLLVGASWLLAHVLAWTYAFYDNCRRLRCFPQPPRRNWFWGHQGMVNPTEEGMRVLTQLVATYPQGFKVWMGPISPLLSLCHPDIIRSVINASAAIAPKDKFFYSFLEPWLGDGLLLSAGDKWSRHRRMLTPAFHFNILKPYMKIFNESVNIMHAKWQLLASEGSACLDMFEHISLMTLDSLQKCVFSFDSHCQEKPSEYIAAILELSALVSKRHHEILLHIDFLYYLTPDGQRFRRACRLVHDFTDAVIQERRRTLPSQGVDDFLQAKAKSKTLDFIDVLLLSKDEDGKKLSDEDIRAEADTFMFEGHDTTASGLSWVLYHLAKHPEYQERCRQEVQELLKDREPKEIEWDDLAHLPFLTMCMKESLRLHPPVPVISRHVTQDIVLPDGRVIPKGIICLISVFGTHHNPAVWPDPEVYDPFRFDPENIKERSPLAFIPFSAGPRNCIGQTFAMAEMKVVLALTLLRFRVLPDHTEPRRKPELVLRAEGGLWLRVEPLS
Protocol: CYP4F2-mediated drug interactions were examined in two separate setting: pafuramidine as the substrate and Compound-3 as the inhibitor; and Compound-3 as the substrate and pafuramidine as the inhibitor. The reaction system contained 10 nM CYP4F2, 100 mM phosphate buffer (pH 7.4), 1 mM NADPH, and substrate (pafuramidine 1.5 μM or Compound-3 1 μM). Inhibitor (Compound-3 or pafuramidine) concentrations ranged from 0 to 10,000 nM. The incubation time was 5 min for pafuramidine and 10 min for Compound-3. Incubation temperature was 37 °C. LC-MS/MS analysis was performed as described above for the levels of DB775 or M4 (carboxylic acid metabolite of Compound-3).

[2] = Metabolic stability in human intestinal microsomes; format: in vitro ADME; settings: human intestinal microsomes 0.2 mg/mL, with NADPH, 1 μM, 37 °C
Protocol: (§4) Stability of Compound-3 was first investigated in microsomal systems from human and rat. The microsomal protein and Compound-3 concentrations were optimized to 0.2 mg/mL and 1 µM, respectively. Before the start of the incubation, reaction mixtures containing phosphate buffer (100 mM, pH 7.4), microsomes and Compound-3 in a total volume of 50 µL were warmed up at 37 °C for 10 min. The reaction was started with the addition of NADPH at a final concentration of 1 mM. Incubations were terminated at a specified time with the addition of 100 µL ice-cold acetonitrile containing the internal standard. The samples were then centrifuged, and aliquots of 10 µL of the supernatants were transferred into liquid chromatography-tandem mass spectrometry (LC-MS/MS) for the analysis of Compound-3 levels.

[3] = test system: human equilibrative transporter 1 (hENT1); settings: cited from earlier work
[4] = Metabolite identification by UPLC/Triple TOF MS in human intestinal microsomes; format: in vitro ADME; parameters: key: √: metabolites were detected by high-resolution mass spectrometry; settings: Compound-3 10 μM, NADPH, 60 min, HRMS
Protocol: as §1, §2, §3

[5] = Metabolic stability in human hepatocytes; format: in vitro ADME; settings: human hepatocytes 1 × 10^6 cell/mL, 1 μM, 37 °C
Protocol: For stability evaluation in human hepatocytes, cryopreserved primary human hepatocytes were revived according to vendor’s protocol and diluted to a density of 1 × 10^6 cell/mL with William’s Medium. The reaction was started with the addition of Compound-3 (1 μM). At specified time points, aliquots of 25 μL of the reaction mixtures were transferred into 100 μL ice-cold acetonitrile containing the internal standard. The samples were then centrifuged, and aliquots of 10 μL of the supernatants were transferred onto LC-MS/MS for the analysis of Compound-3 levels and its metabolites.

tumor = settings: in vitro and in vivo testing in the preclinical setting; cited from earlier work
[6] = Metabolite identification by UPLC/Triple TOF MS in rat liver microsomes; format: in vitro ADME; parameters: key: √: metabolites were detected by high-resolution mass spectrometry; settings: Compound-3 10 μM, 1 mg/mL microsomes, NADPH, 60 min, HRMS
Protocol: as §1, §2, §3

[7] = Metabolite identification by UPLC/Triple TOF MS in human liver microsomes; format: in vitro ADME; parameters: key: √: metabolites were detected by high-resolution mass spectrometry; settings: Compound-3 10 μM, 1 mg/mL microsomes, NADPH, 60 min, HRMS
Protocol: as §1, §2, §3

[8] = Metabolic stability in rat intestinal microsomes; format: in vitro ADME; settings: rat intestinal microsomes 0.2 mg/mL, with NADPH, 1 μM, 37 °C
Protocol: as §4

[9] = test system: H460 tumor xenograft (non-small cell lung cancer); settings: cited from earlier work

**Q.** For `CCCCCCCCCCCCCCCCCCOCCOP(=O)(O)OCC1OC(n2ccc(N)nc2=O)C(F)(F)C1O` (centres unmarked) [Compound-3], which “detected in matrix Human Hepatocytes” value [1] is on record?
**A.** Its value is “√”.

**Q.** And the pIC50 (CYP4F2)?
**A.** Its pIC50 is 7.00.

**Q.** And the “disappearance after 60 min incubation” value [2]?
**A.** Its value is greater than 50%.

**Q.** And the “cellular uptake limitation by hENT1” value [3]?
**A.** Its value is “low propensity to be limited”.

**Q.** And the “detected in matrix HIM” value [4]?
**A.** The value was “√”.

**Q.** And the “disappearance after 60 min incubation” value [5]?
**A.** The value was ~ 30%.

**Q.** And the “antitumor activity as compared to gemcitabine itself and LY2334737” value (tumor)?
**A.** The value was “enhanced antitumor activity”.

**Q.** What about the “detected in matrix RLM” value [6] of the same compound?
**A.** Its value is “√”.

**Q.** What about the “detected in matrix HLM” value [7] of the same compound?
**A.** The value was “√”.

**Q.** What about the “disappearance in 60 min” value [8] of the same compound?
**A.** Its value is ~ 20%.

**Q.** What about the “oral activity in tumor xenograft model” value [9] of the same compound?
**A.** The value was “orally active”.
